In the supplement of paper PMC11616607:

Key:
Experiment in all cases: drug sensitivity score (DSS) from 5-point dose-response viability curve (DSS (area-under-curve based score)); higher = more sensitive (stronger growth inhibition or killing); extreme values may be limits of the assay
Details in all cases: exposure time: 72 h; concentration range: 5 concentrations over 10,000-fold range
[1] = tested on: HOSE2C
Method in brief: (§1)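 Ovarian cancer and normal ovarian cell lines were tested in 384-well plates, with drugs dispensed acoustically (Echo 550) in DMSO or water at five concentrations covering a 10,000-fold range. After 1,500 cells per well were added, plates were incubated for 3 days at 37°C and 5% CO2, and viability was read by CellTiter-Glo luminescence on a PHERAstar FS. Breeze software gave a drug sensitivity score for each cell line and drug, where a higher score means greater sensitivity. A value of zero means no response.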

[2] = tested on: OVCAR5
Method in brief: as §1

[3] = tested on: OVCAR4
Method in brief: as §1

[4] = tested on: Kuramochi
Method in brief: as §1

[5] = tested on: COV362
Method in brief: as §1

[6] = tested on: HOSE1C
Method in brief: as §1

[7] = tested on: OV90
Method in brief: as §1

[8] = tested on: OVCAR8
Method in brief: as §1

[9] = tested on: Ovsaho
Method in brief: as §1

[10] = tested on: COV318
Method in brief: as §1

[11] = tested on: JHOS2
Method in brief: as §1

[12] = tested on: CAOV3
Method in brief: as §1

Row | SMILES | drug sensitivity score [1] | drug sensitivity score [2] | drug sensitivity score [3] | drug sensitivity score [4] | drug sensitivity score [5] | drug sensitivity score [6] | drug sensitivity score [7] | drug sensitivity score [8] | drug sensitivity score [9] | drug sensitivity score [10] | drug sensitivity score [11] | drug sensitivity score [12]
1 | CN1C(=O)N[C@H](Cc2c[nH]c3c(Cl)cccc23)C1=O [Necrostatin 2] | 0 | 0 | 0 | 0 | 0 | 0 | 0 | 0 | 0 | 0 | 0 | 0
2 | O=c1ncn2nc(Sc3ccc(F)cc3F)ccc2c1-c1c(Cl)cccc1Cl [Neflamapimod] | 0 | 0.8 | 0.4 | 2 | 0 | 0.1 | 0.4 | 0.9 | 0 | 0.8 | 0 | 0
3 | COc1nc(N)nc2c1ncn2[C@@H]1O[C@H](CO)[C@@H](O)[C@@H]1O [Nelarabine] | 0 | 0 | 0 | 0 | 0 | 0 | 1.7 | 0 | 0 | 0 | 0 | 0
4 | CCOc1cc2ncc(C#N)c(Nc3ccc(OCc4ccccn4)c(Cl)c3)c2cc1NC(=O)/C=C/CN(C)C [Neratinib] | 1 | 2.9 | 0.6 | 0.4 | 0 | 0 | 0 | 4.8 | 0 | 0 | 1.4 | 5.3
5 | Cc1cn(-c2cc(NC(=O)c3ccc(C)c(Nc4nccc(-c5cccnc5)n4)c3)cc(C(F)(F)F)c2)cn1 [Nilotinib] | 0 | 2 | 0.9 | 0 | 1.2 | 0 | 0 | 3.4 | 0 | 0.1 | 0 | 0
6 | CC1(C)NC(=O)N(c2ccc([N+](=O)[O-])c(C(F)(F)F)c2)C1=O [Nilutamide] | 0 | 0.1 | 0 | 1.6 | 0 | 0.8 | 0 | 0 | 0 | 0 | 0.6 | 0
7 | COC(=O)c1ccc2c(c1)NC(=O)/C2=C(\Nc1ccc(N(C)C(=O)CN2CCN(C)CC2)cc1)c1ccccc1 [Nintedanib] | 6.3 | 7.9 | 3.6 | 4.2 | 1.8 | 3.1 | 3.5 | 3.2 | 5.5 | 2.5 | 0.6 | 0.2
8 | NC(=O)c1cccc2cn(-c3ccc([C@@H]4CCCNC4)cc3)nc12 [Niraparib] | 1.9 | 2.6 | 0 | 1 | 0 | 3.9 | 1.7 | 4.1 | 2.1 | 1.1 | 1.5 | 3.4
9 | CC(=O)c1cnc2ccc(-c3cc(Cl)c(O)c(Cl)c3)nc2c1N[C@H]1CC[C@H](CN(C)C)CC1 [OTS167] | 12.4 | 11.8 | 7.5 | 10.6 | 5.4 | 19.8 | 7.5 | 13.6 | 9.1 | 15.1 | 13.4 | 13.2
10 | O=C(c1cc(Cc2n[nH]c(=O)c3ccccc23)ccc1F)N1CCN(C(=O)C2CC2)CC1 [Olaparib] | 2.5 | 2 | 1.9 | 3.4 | 0.3 | 0.8 | 5.4 | 4.9 | 2.1 | 2.9 | 4.6 | 4.7
11 | C=CC(=O)Nc1cccc(Oc2nc(Nc3ccc(N4CCN(C)CC4)cc3)nc3ccsc23)c1 [Olmutinib] | 0 | 0.7 | 0.1 | 0.7 | 0.6 | 0 | 0 | 0 | 0.5 | 0.3 | 0 | 0.3
12 | COC(=O)C[C@](O)(CCCC(C)(C)O)C(=O)O[C@@H]1C(OC)=C[C@]23CCCN2CCc2cc4c(cc2[C@H]13)OCO4 [Omacetaxine] | 18.6 | 23.4 | 20.9 | 18.3 | 19.2 | 31 | 23.3 | 24.1 | 19.5 | 17.4 | 19.3 | 28.7
13 | CC1(C)CC[C@]2(NC(=O)C(C)(F)F)CC[C@]3(C)[C@H](C(=O)C=C4[C@@]5(C)C=C(C#N)C(=O)C(C)(C)[C@@H]5CC[C@]43C)[C@@H]2C1 [Omaveloxolone] | 16.3 | 13.7 | 18.6 | 14.3 | 9.2 | 16.5 | 18.8 | 18.9 | 19.6 | 10.5 | 13.3 | 17.4
14 | COc1ncc(-c2ccc3nccc(-c4ccnnc4)c3c2)cc1NS(=O)(=O)c1ccc(F)cc1F [Omipalisib] | 18.1 | 18.9 | 12.7 | 16.2 | 6.7 | 16.6 | 8.6 | 13.3 | 10.4 | 10.7 | 10.1 | 16.9
15 | CC(C)c1cc(C(=O)N2Cc3ccc(CN4CCN(C)CC4)cc3C2)c(O)cc1O [Onalespib] | 11.7 | 10.6 | 6.7 | 6.6 | 7.7 | 9.2 | 14.6 | 16.4 | 3.1 | 5 | 12.8 | 11.6
16 | COC[C@H](NC(=O)c1cnc(C)s1)C(=O)N[C@@H](COC)C(=O)N[C@@H](Cc1ccccc1)C(=O)[C@@]1(C)CO1 [Oprozomib] | 17.1 | 15.4 | 15.2 | 9.6 | 15.1 | 18.8 | 21.4 | 12.6 | 16.1 | 24.5 | 23.9 | 21.7
17 | CNC(=O)c1ccc2cc([C@@]3(O)CCn4cncc43)ccc2c1 [Orteronel] | 0 | 0 | 0 | 0 | 0 | 0 | 0 | 0 | 0 | 0 | 0 | 0
18 | C=CC(=O)Nc1cc(Nc2nccc(-c3cn(C)c4ccccc34)n2)c(OC)cc1N(C)CCN(C)C [Osimertinib] | 0.9 | 5.3 | 1.7 | 3.9 | 2.2 | 4.7 | 1.4 | 3.7 | 5.5 | 1.3 | 1.6 | 5.4
19 | O=C(O)C(=O)O.[NH-][C@@H]1CCCC[C@H]1[NH-].[Pt+2] [Oxaliplatin] | 6 | 11.4 | 8.5 | 6.8 | 0.2 | 10.7 | 6.9 | 6.8 | 9 | 5 | 7.8 | 11.8
20 | C=CCc1cccc(/C=N/NC(=O)CN2CCN(Cc3ccccc3)CC2)c1O [PAC-1] | 2.7 | 1.7 | 3 | 2.1 | 0.4 | 3.1 | 2.6 | 4 | 4 | 0.2 | 0.7 | 3.2
21 | O=C(Nc1cccnc1)N1CCC(Cc2cccc(Oc3ccc(C(F)(F)F)cn3)c2)CC1 [PF-3845] | 0 | 1 | 0.3 | 0 | 0 | 0 | 2 | 6.5 | 0 | 0 | 0 | 1.6
22 | COc1ccccc1S(=O)(=O)Nc1ccc2c(c1)CN(C)C(=O)N2 [PFI-1] | 4.3 | 5.7 | 4.4 | 8.7 | 3 | 3.1 | 5.5 | 4.8 | 8.2 | 3.1 | 2.6 | 7.2
23 | CN1CCN(c2cc(C(=O)Nc3ccc4c(c3)-c3c(c(C(N)=O)nn3-c3ccc(F)cc3)CC4)c(Cl)cn2)CC1 [PHA 408] | 4.8 | 0.5 | 4.3 | 1.8 | 0.6 | 6.5 | 0.1 | 2.4 | 6.2 | 0.7 | 6.1 | 6
24 | O=C(Nc1cc(Cl)cc2c1[nH]c1cnccc12)c1cccnc1 [PS-1145] | 0 | 1.6 | 0.3 | 0.6 | 0 | 0 | 1 | 0 | 0 | 0 | 0 | 0
25 | COc1cc(Br)c(Nc2nc(-c3c(C)nc4ncccn34)cs2)c(Br)c1 [PTC-209] | 9.6 | 3.5 | 3.1 | 2.7 | 0.6 | 8.1 | 9.8 | 4.5 | 1.3 | 2.1 | 6.2 | 4.1
26 | CC(=O)O[C@H]1C(=O)[C@@]2(C)[C@H]([C@H](OC(=O)c3ccccc3)[C@]3(O)C[C@H](OC(=O)[C@H](O)[C@@H](NC(=O)c4ccccc4)c4ccccc4)C(C)=C1C3(C)C)[C@]1(OC(C)=O)CO[C@@H]1C[C@@H]2O [Paclitaxel] | 25 | 21.4 | 7.8 | 13.8 | 8.9 | 25.1 | 14.9 | 27.6 | 11.8 | 5.7 | 14.4 | 25.9
27 | C1=N/C2=N/c3ccc(OCCN4CCCC4)c(c3)COC/C=C/COCc3cccc(c3)C(=C1)N2 [Pacritinib] | 8.2 | 9.4 | 6.8 | 6.5 | 6.2 | 8.2 | 10.5 | 7.8 | 8 | 5.3 | 7.5 | 7.6
28 | CC(=O)c1c(C)c2cnc(Nc3ccc(N4CCNCC4)cn3)nc2n(C2CCCC2)c1=O [Palbociclib] | 2.9 | 3.6 | 0.1 | 1.4 | 1 | 4.5 | 0.8 | 0.5 | 3 | 3.2 | 6.3 | 0.1
29 | COc1ccc(COc2cc3oc(=O)c4cc(C(C)O)ccc4c3cc2OC)cc1 (stereo not given) [Palomid-529] | 0 | 0 | 0.6 | 0.1 | 0 | 0 | 0.8 | 0 | 0.1 | 1.2 | 0 | 0
30 | Cc1[nH]c2ccccc2c1CCNCc1ccc(/C=C/C(=O)NO)cc1 [Panobinostat] | 21.1 | 23.3 | 13.5 | 15.3 | 5.8 | 24.1 | 18.2 | 21.4 | 10.8 | 10.6 | 13.1 | 14.5
